System: Alzheimer's disease-related / dementia-related symptoms
Assay: Dietary supplementation of dementia subjects (case accounts by caregiver and physician)
Format: in vivo, human
Details: Subject #3; diet also supplemented with yellow corn, pineapple and tomato sauce products
Description: Prior to addressing the patient's dementia problem, a complete diagnosis of the subject was performed by a qualified physician.
The diets of these four subjects were also supplemented, to varying degrees, with yellow corn, pineapple and tomato sauce products.

With `CC(C)=CCC/C(C)=C/C=C/C(C)=C/C=C/C(C)=C/C=C/C=C(C)/C=C/C=C(C)/C=C/C=C(\C)CCC=C(C)C` [lycopene] as the compound, how does the “symptoms (memory loss, anxiety, eating less)” value read?
Its value is “still exhibiting reduced symptoms”.

From patent US20040005311A1, “Dietary supplement compositions” (priority 2003, published 2004)
